The source of these data is PubChem BioAssay (NCI).

Some test systems named below: UO-31 renal; U251 CNS; SK-OV-3 ovarian; CCRF-CEM leukemia; SF-295 CNS; OVCAR-4 ovarian; MCF7 breast; SN12C renal; A549 NSCLC.
What all share (experiment): inhibition of tumour cell growth, NCI panel, 48 h

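Tested at 5 concentrations; 48 h exposure; 96-well plates; endpoints linearly interpolated, else capped at highest concentration. The concentration for 50% growth inhibition is given as GI50. The concentration for full growth arrest is given as TGI.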

As to `O=C(Nc1ccc(Cl)c(Cl)c1)c1cccc(NC2=C(Cl)C(=O)N(Cc3ccccc3)C2=O)c1`, the GI50 in the test on UO-31 renal was 34.6 µM; in the test on U251 CNS, 35.3 µM; with SK-OV-3 ovarian, over 100 µM; with CCRF-CEM leukemia, 23.4 µM; with SF-295 CNS it was 49.7 µM; in the test on OVCAR-4 ovarian it was 48.3 µM. Further, the figures for the GI50 in the test on MCF7 breast, in the test with SN12C renal and in the test with A549 NSCLC were 22.5 µM, 52.9 µM and 42.9 µM, respectively. Besides, the TGI with UO-31 renal, in the test on U251 CNS, in the test with SK-OV-3 ovarian, with CCRF-CEM leukemia, in the test on SF-295 CNS and in the test on OVCAR-4 ovarian was over 100 µM in each case. Further, the TGI in the test on MCF7 breast was 96.1 µM; with SN12C renal it was over 100 µM; in the test with A549 NSCLC, over 100 µM.

With `COc1cc(NS(C)(=O)=O)ccc1Nc1c2ccc([N+](=O)[O-])cc2nc2c(C)cccc12`, the GI50 with UO-31 renal was 1.22 µM; with U251 CNS, 0.214 µM; with SK-OV-3 ovarian, 0.891 µM; with CCRF-CEM leukemia, 0.158 µM; in the test with SF-295 CNS, 0.171 µM; in the test with OVCAR-4 ovarian it was 3.32 µM. In addition, the GI50 is 0.0133 µM in the test with MCF7 breast, 0.175 µM in the test with SN12C renal and 0.0345 µM in the test with A549 NSCLC. The TGI was 11.4 µM in the test on UO-31 renal; 11.2 µM with U251 CNS; 11.5 µM in the test with SK-OV-3 ovarian; 3.4 µM with CCRF-CEM leukemia; 11.1 µM in the test with SF-295 CNS; 19.1 µM in the test on OVCAR-4 ovarian. The TGI in the test with MCF7 breast worked out at 12.2 µM; with SN12C renal it was 9.26 µM; in the test with A549 NSCLC, 2.34 µM.

Regarding `O=C[C@@H](CO)O[C@H](C=O)c1c[nH]c(=O)[nH]c1=O`, the TGI in the test on UO-31 renal worked out at 287 µM; in the test on U251 CNS it was 930 µM; with SK-OV-3 ovarian it was 473 µM; in the test on CCRF-CEM leukemia it was 973 µM; in the test with SF-295 CNS, 1150 µM; in the test with OVCAR-4 ovarian, 375 µM. The results for the TGI in the test with MCF7 breast, in the test on SN12C renal and with A549 NSCLC were 428 µM, 551 µM and 1020 µM, respectively.

Take `COc1ccc(C(=O)c2cc(OC)c(OC)c(OC)c2)cc1`: the TGI in the test on UO-31 renal was 61.9 µM; in the test with U251 CNS, 9.74 µM; in the test with SK-OV-3 ovarian it was over 13.7 µM; in the test on CCRF-CEM leukemia, over 100 µM; in the test on SF-295 CNS, 0.196 µM; in the test with OVCAR-4 ovarian it was over 100 µM. For the same molecule, the TGI with MCF7 breast, in the test with SN12C renal and with A549 NSCLC was over 100 µM each time.

On to `CCc1nc(N)nc(N)c1-c1ccc(NCCN)c([N+](=O)[O-])c1`, for which the TGI is over 100 µM in the test on UO-31 renal; over 100 µM in the test on U251 CNS; over 100 µM with SK-OV-3 ovarian; over 72.4 µM in the test with CCRF-CEM leukemia; over 100 µM in the test on SF-295 CNS; over 100 µM in the test on OVCAR-4 ovarian. Further, the TGI in the test with MCF7 breast is over 78.3 µM; in the test with SN12C renal, over 100 µM; in the test with A549 NSCLC, over 100 µM.

On to `COC(=O)[C@@]12C(=O)C=CC(=O)[C@@H]1C1C(=CC2COC(C)=O)O[C@@H]2OC3(CCCCC3)O[C@H]12` (some centres undefined), for which the TGI in the test on UO-31 renal is 28.3 µM; in the test on U251 CNS, 29.2 µM; with SK-OV-3 ovarian, 30 µM; in the test with CCRF-CEM leukemia, 17 µM; in the test on SF-295 CNS, 29.7 µM; with OVCAR-4 ovarian, 19.7 µM. The TGI came out at 32.3 µM in the test with MCF7 breast, 29.1 µM in the test with SN12C renal and 22.4 µM in the test with A549 NSCLC.

Turning to `Clc1ncnc(Cl)c1Cl`, the TGI with UO-31 renal, with U251 CNS, in the test with SK-OV-3 ovarian, in the test on CCRF-CEM leukemia, in the test on SF-295 CNS and in the test on OVCAR-4 ovarian was over 100 µM each time. Besides, the TGI with MCF7 breast, in the test on SN12C renal and in the test on A549 NSCLC was over 100 µM in each case.

Regarding `COc1cccc(C2c3cc4c(cc3OC(C)(N3CCCC3)C2C)OCO4)c1OC` (centres undefined), the TGI with UO-31 renal was 37.5 µM; in the test with U251 CNS it was 24.5 µM; in the test with SK-OV-3 ovarian, 69.6 µM; with CCRF-CEM leukemia, 35.7 µM; with SF-295 CNS, over 100 µM; in the test on OVCAR-4 ovarian, 46.1 µM. Besides, the figures for the TGI in the test with MCF7 breast, in the test with SN12C renal and with A549 NSCLC were 98.6 µM, 41.6 µM and 35.8 µM, respectively.

For the molecule `CCCCC[C@H](O)/C=C/[C@@H]1[C@@H](C/C=C\CCCC(=O)O)[C@@H](O)C[C@H]1O`, the GI50 with UO-31 renal, with U251 CNS, with SK-OV-3 ovarian, in the test with CCRF-CEM leukemia, in the test with SF-295 CNS and with OVCAR-4 ovarian was over 100 µM throughout. Moreover, the GI50 with MCF7 breast, in the test on SN12C renal and in the test with A549 NSCLC was over 100 µM in each case. Moreover, the TGI with UO-31 renal, with U251 CNS, with SK-OV-3 ovarian, with CCRF-CEM leukemia, in the test on SF-295 CNS and with OVCAR-4 ovarian was over 100 µM in each case. The TGI in the test with MCF7 breast, in the test on SN12C renal and in the test with A549 NSCLC was over 100 µM in each case.

Consider `CC(=O)N[C@@H](Cc1ccc(OP(=O)(O)O)cc1)C(=O)N[C@H]1CCC(=O)N2CCC[C@@H](C(=O)NCc3ccc(Cl)cc3)N2C1=O`, for which the GI50 with UO-31 renal, with U251 CNS, in the test with SK-OV-3 ovarian, with CCRF-CEM leukemia, in the test on SF-295 CNS and with OVCAR-4 ovarian was over 25 µM each time. The GI50 with MCF7 breast, in the test with SN12C renal and in the test with A549 NSCLC was over 25 µM each time. For the same molecule, the TGI in the test with UO-31 renal, with U251 CNS, in the test on SK-OV-3 ovarian, with CCRF-CEM leukemia, in the test on SF-295 CNS and in the test with OVCAR-4 ovarian was over 25 µM in each case. Moreover, the TGI in the test with MCF7 breast, in the test on SN12C renal and in the test on A549 NSCLC was over 25 µM throughout.

Turning to `COc1ccc(OC)c(/C=N/NC(=O)Cc2csc3nc(-c4ccc(Br)cc4)cn23)c1`, the GI50 in the test on UO-31 renal is 60.6 µM; with U251 CNS, 13.8 µM; in the test with SK-OV-3 ovarian it was 57.7 µM; in the test with CCRF-CEM leukemia, 9.59 µM; in the test on SF-295 CNS, 12.3 µM; in the test on OVCAR-4 ovarian it was 28.4 µM. Further, the values for the GI50 in the test with MCF7 breast, in the test on SN12C renal and in the test on A549 NSCLC were 29.7 µM, 20.7 µM and 11.6 µM, respectively. The TGI in the test with UO-31 renal is over 100 µM; with U251 CNS it was 31.4 µM; in the test on SK-OV-3 ovarian, over 100 µM; with CCRF-CEM leukemia it was over 100 µM; in the test on SF-295 CNS, 34.6 µM; with OVCAR-4 ovarian it was over 100 µM. In addition, the TGI is over 100 µM in the test on MCF7 breast, 49.4 µM in the test on SN12C renal and 38.7 µM in the test with A549 NSCLC.
